Experimental data as given in PMC9686985, “Chimeric Peptides Derived from Bovine Lactoferricin and Buforin II: Antifungal Activity against Reference Strains and Clinical Isolates of Candida spp” (Antibiotics, 2022).
Like-named read-outs stand apart in the source and are kept apart here. Positions of bridges follow the written chain, without caps; N, C: chain ends. Non-standard residues stand in square brackets, D forms with d. Residues, ends and D or L forms follow the SMILES beside them. Chains are numbered I, II in the order given. No end group written: not given here. Ahx = NCCCCCC(=O)O

Experiments:
[1] = tested on: C. albicans 256 HUSI-PUJ; format: cell-based, Candida albicans; details: for MFC: 24 h; for MIC: 48 h
Protocol: (§1) Antifungal susceptibility testing was carried out using the broth microdilution (BMD) method, following the CLSI M27-A3 guidelines with slight modifications. Briefly, cells (0.5–2.5 × 10^3 CFU/mL) were incubated with peptides (200, 100, 50, 25, 12.5, and 6.25 µg/mL) at 37 °C for 48 h. MICs were visualized and densitometry (595 nm, microplate reader, Bio-Rad, ᵢMark^TM) was used to determine the lowest concentration of peptide that caused a significant decrease (MIC/2 or ≥50%) compared with the growth control (cells incubated in absence of peptide) (n = 3). In order to verify that the peptides were able to kill the yeast cells, the plates were also evaluated for minimum fungicidal concentration (MFC). Briefly, aliquots from each well from susceptibility testing assays were transferred to plates containing Sabouraud dextrose agar (SDA), which were then incubated at 37 °C for 24 h. The highest dilution with no growth on the agar plate was considered to be the MFC.

[2] = tested on: C. albicans ATCC SC5314; format: cell-based, Candida albicans
Protocol: as §1

[3] = tested on: human red blood cells; design: method as in PMID 33369144; details: cited from earlier work
[4] = tested on: C. albicans 256; format: cell-based, Candida albicans; details: for Inhibition of growth: 256, 48 h; for Time-kill result: Fungicide concentration / Time-kill result: Fungistatic concentration: after 48 h of incubation, RPMI 1640, 37 °C, Bioscreen C
Protocol: (§2) A time-kill kinetic assay was carried out according to the method previously described by Pfaller and coworkers with minor modifications. The peptides (C5, C6, C8, and C9) diluted in RPMI were tested at a range of concentrations: 0 (control), 0.2, 0.5, 1, and 2 times the MIC value for each strain. The isolates were subcultured on SBD, and then an inoculum was adjusted to a 0.5–2.5 × 10^3 CFU/mL in an RPMI 1640 medium. Yeast inoculum (150 uL) was added to a 100-well plate containing serial dilutions of the peptides. The plates were incubated with agitation at 37 °C in a plate reader (Bioscreen C MBR automated turbidometric analyzer, Growth Curves Ltd., Helsinki, Finland), which takes hourly absorbance readings. Moreover, fluconazole MICs were used as a control. The readings were analyzed with Bioscreen software (Growth Curves USA, Piscataway, NJ, USA) and GraphPad Prism 8.0.1 (GraphPad Soft-ware, San Diego, CA, USA). Statistical comparisons were made using an analysis of variance (two-way ANOVA) followed by a Tukey–Kramer post hoc test. P values less than 0.005 were considered significant. […] Moreover, previously determined FLC MICs (data not shown) were used as a control.

[5] = tested on: C. albicans SC5314; format: cell-based, Candida albicans; details: for Inhibition of growth: SC5314, 48 h; for Time-kill result: Fungicide concentration / Time-kill result: Fungistatic concentration: after 48 h of incubation, RPMI 1640, 37 °C, Bioscreen C
Protocol: as §2

[6] = tested on: C. albicans 256 HUSI-PUJ; format: cell-based, Candida albicans; details: for MICa/A: factor by which the chimera is potentiated in combination: peptide combined with FLC
Protocol: (§3) The in vitro interactions between the peptides (C6, C8, and C9) and the FLC drug were evaluated in a checkerboard assay, as previously described by Cokol et al.. Briefly, each isolate was prepared by picking colonies from an overnight culture in SBD at 37 °C and suspended in a sterile normal saline PBS buffer. The fungal inoculum was adjusted to 0.5 MacFarland and the inoculum was adjusted to 0.5–2.5 × 10^3 CFU/mL. The drug-peptide combinations were formed over a range of concentrations: 0 (control) and 0.06 to 2 times the MIC [51]. The fractional inhibitory concentration index (FICI) was calculated as follows:
(§4) FICI=CML peptide in combination/CMI peptide alone+CML FLC in combination/CMI FLC alone
(§5) The calculated FICI was reported as synergy with values FICI ≤ 0.5, additive FICI > 0.5–1, indifference FICI > 1–4, and antagonism FICI ≥ 4 [52].
(§6) A synergistic effect was considered to be when the effect of the combination exceeded the effects of the individual components. An additive effect was when the effect of the combination was equal to the sum of the effects of the individual components.

[7] = tested on: C. albicans ATCC SC5314; format: cell-based, Candida albicans; details: for Effect of the combination with FLC (by FICI): checkerboard; for MICa/A: factor by which the chimera is potentiated in combination: peptide combined with FLC
Protocol: as §3, §4, §5, §6

[8] = FLC-resistant clinical isolate, aliquots plated on SDA, 37 °C, no growth
[9] = FLC-resistant clinical isolate, broth microdilution CLSI M27-A3, 37 °C, ≥50% decrease vs growth control, n = 3
[10] = FLC-sensitive reference strain, aliquots plated on SDA, 37 °C, 24 h, no growth
[11] = FLC-sensitive reference strain, broth microdilution CLSI M27-A3, 37 °C, 48 h, ≥50% decrease vs growth control, n = 3
[12] = fungistatic = growth inhibition >70% for 48 h
[13] = time-kill curve, peptide at 12.5 µg/mL (4 µM)

Molecule	MFC ([1]; 256 HUSI-PUJ) [µM]	MIC ([1]; 256 HUSI-PUJ) [µM]	MFC ([2]; ATCC SC5314, 24 h) [µM]	MIC ([2]; ATCC SC5314, 48 h) [µM]	MFC [1, 8] [µg/mL]	MIC [1, 9] [µg/mL]	MFC [2, 10] [µg/mL]	MIC [2, 11] [µg/mL]	further results
CC(C)C[C@H](NC(=O)[C@H](CC(C)C)NC(=O)[C@H](CCCCN)NC(=O)[C@H](CCCCN)NC(=O)[C@H](CC(C)C)NC(=O)[C@H](CC(C)C)NC(=O)[C@H](CCCCN)NC(=O)CCCCCNC(=O)[C@H](CCCCN)NC(=O)[C@H](Cc1c[nH]c2ccccc12)NC(=O)[C@H](CCC(N)=O)NC(=O)[C@H](Cc1c[nH]c2ccccc12)NC(=O)[C@H](CCCCN)NC(=O)[C@@H](N)CCCCN)C(=O)N[C@@H](CCCCN)C(N)=O [C7] (H-KKWQWK[Ahx]KLLKKLLK-NH2)	> 101	101	> 101	101					
RLLRRLLR [BFII (32–35)Pal, reference compound]	> 183	> 183	> 183	> 183					
RLLRRRWQWR-NH2 [C3]	131	66	131	66					Hemolytic effect [3]: 2–4%
RRWQWRRLLR-NH2 [C1]	> 131	66	> 131	131					
CC(C)C[C@H](NC(=O)[C@H](CC(C)C)NC(=O)[C@H](CCCNC(=N)N)NC(=O)[C@H](CCCNC(=N)N)NC(=O)[C@H](CC(C)C)NC(=O)[C@H](CC(C)C)NC(=O)[C@H](CCCNC(=N)N)NC(=O)CCCCCNC(=O)[C@H](CCCCNC(=O)[C@H](CCCNC(=N)N)NC(=O)[C@H](Cc1c[nH]c2ccccc12)NC(=O)[C@H](CCC(N)=O)NC(=O)[C@H](Cc1c[nH]c2ccccc12)NC(=O)[C@H](CCCNC(=N)N)NC(=O)[C@@H](N)CCCNC(=N)N)NC(=O)[C@H](CCCNC(=N)N)NC(=O)[C@H](Cc1c[nH]c2ccccc12)NC(=O)[C@H](CCC(N)=O)NC(=O)[C@H](Cc1c[nH]c2ccccc12)NC(=O)[C@H](CCCNC(=N)N)NC(=O)[C@@H](N)CCCNC(=N)N)C(=O)N[C@@H](CCCNC(=N)N)C(N)=O [C9] (I: H-RRWQWRK[Ahx]RLLRRLLR-NH2 / II: H-RRWQWR; amide I:7-II:C; N-terminus assumed)	15	15	15	15	50	50	50	50	Inhibition of growth [4]: more than 90%; Time-kill result: Fungicide concentration ([4]; fungicidal = yeast kill ≥99%): 25 µg/mL; Time-kill result: Fungistatic concentration [4, 12]: 13 µg/mL; Time-kill result: Fungicide concentration ([4]; value in brackets): 8 µM; Time-kill result: Fungistatic concentration ([4]; value in brackets): 4 µM; Incubation time up to which strain growth was completely inhibited [4, 13]: approximately 20 h; Inhibition of growth [5]: more than 90%; Time-kill result: Fungicide concentration ([5]; fungicidal = yeast kill ≥99%): 25 µg/mL; Time-kill result: Fungistatic concentration [5, 12]: 13 µg/mL; Time-kill result: Fungicide concentration ([5]; value in brackets): 8 µM; Time-kill result: Fungistatic concentration ([5]; value in brackets): 4 µM; Incubation time up to which strain growth was completely inhibited [5, 13]: approximately 20 h; MICa: MIC of the chimeric peptide alone ([6]; 256 HUSI-PUJ): 50 µg/mL; MICa/A: factor by which the chimera is potentiated in combination [6]: 2; MICa: MIC of the chimeric peptide alone ([7]; ATCC SC5314): 100 µg/mL; Effect of the combination with FLC (by FICI) [7]: synergistic; MICa/A: factor by which the chimera is potentiated in combination [7]: 4
CC(C)C[C@H](NC(=O)[C@H](CC(C)C)NC(=O)[C@H](CCCNC(=N)N)NC(=O)CCCCCNC(=O)[C@H](CCCCNC(=O)[C@H](CCCNC(=N)N)NC(=O)[C@H](Cc1c[nH]c2ccccc12)NC(=O)[C@H](CCC(N)=O)NC(=O)[C@H](Cc1c[nH]c2ccccc12)NC(=O)[C@H](CCCNC(=N)N)NC(=O)[C@@H](N)CCCNC(=N)N)NC(=O)[C@H](CCCNC(=N)N)NC(=O)[C@H](Cc1c[nH]c2ccccc12)NC(=O)[C@H](CCC(N)=O)NC(=O)[C@H](Cc1c[nH]c2ccccc12)NC(=O)[C@H](CCCNC(=N)N)NC(=O)[C@@H](N)CCCNC(=N)N)C(=O)N[C@@H](CCCNC(=N)N)C(N)=O [C8] (I: H-RRWQWRK[Ahx]RLLR-NH2 / II: H-RRWQWR; amide I:7-II:C; N-terminus assumed)	37	37	37	37	100	100	100	100	Inhibition of growth [4]: more than 90%; Time-kill result: Fungicide concentration ([4]; fungicidal = yeast kill ≥99%): 200 µg/mL; Time-kill result: Fungistatic concentration [4, 12]: 100 µg/mL; Time-kill result: Fungicide concentration ([4]; value in brackets): 73 µM; Time-kill result: Fungistatic concentration ([4]; value in brackets): 37 µM; Incubation time up to which yeast growth was inhibited ([4]; time-kill curve, peptide at 100 µg/mL): ~40 h; Inhibition of growth [5]: more than 90%; Time-kill result: Fungicide concentration ([5]; fungicidal = yeast kill ≥99%): 200 µg/mL; Time-kill result: Fungistatic concentration [5, 12]: 100 µg/mL; Time-kill result: Fungicide concentration ([5]; value in brackets): 73 µM; Time-kill result: Fungistatic concentration ([5]; value in brackets): 37 µM; Incubation time up to which yeast growth was completely inhibited ([5]; time-kill curve, peptide at 100 µg/mL (37 µM)): about 23 h; Effect of the combination with FLC (by FICI) ([6]; checkerboard): indifferent; MICa/A: factor by which the chimera is potentiated in combination [6]: 2; Effect of the combination with FLC (by FICI) [7]: synergistic; MICa/A: factor by which the chimera is potentiated in combination [7]: 8
CC(C)C[C@H](NC(=O)[C@H](CC(C)C)NC(=O)[C@H](CCCNC(=N)N)NC(=O)CCCCCNC(=O)[C@H](CCCNC(=N)N)NC(=O)[C@H](Cc1c[nH]c2ccccc12)NC(=O)[C@H](CCC(N)=O)NC(=O)[C@H](Cc1c[nH]c2ccccc12)NC(=O)[C@H](CCCNC(=N)N)NC(=O)[C@@H](N)CCCNC(=N)N)C(=O)N[C@@H](CCCNC(=N)N)C(N)=O [C2] (H-RRWQWR[Ahx]RLLR-NH2; N-terminus assumed)	> 122	122	> 122	122	> 200	200	> 200	200	
CC(C)C[C@H](NC(=O)[C@H](CC(C)C)NC(=O)[C@@H](N)CCCNC(=N)N)C(=O)N[C@@H](CCCNC(=N)N)C(=O)NCCCCCC(=O)N[C@@H](CCCNC(=N)N)C(=O)N[C@@H](CCCNC(=N)N)C(=O)N[C@@H](Cc1c[nH]c2ccccc12)C(=O)N[C@@H](CCC(N)=O)C(=O)N[C@@H](Cc1c[nH]c2ccccc12)C(=O)N[C@@H](CCCNC(=N)N)C(N)=O [C4] (H-RLLR[Ahx]RRWQWR-NH2; N-terminus assumed)	> 122	122	> 122	> 122	> 200	200	> 200	> 200	
